According to patent US8999967B2, “Tricyclic fused ring inhibitors of hepatitis C” (Presidio Pharmaceuticals, Inc., priority 2010, dated 2015):

Tested on: HCV 1b_Huh-Luc/Neo-ET cell line (genotype 1b replicon in Huh 7 cells)
Test: HCV replicon assay (luciferase readout)
Type: cell-based
Conditions: Hepatitis C virus, HCV 1b replicon in Huh 7 cells, 72 h incubation, EC50 range class, read-out: Inhibition of HCV genotype 1b
Description: Biological activity of the compounds of the invention was determined using an HCV replicon assay. The HCV 1b_Huh-Luc/Neo-ET cell line persistently expressing a bicistronic genotype 1b replicon in Huh 7 cells was obtained from ReBLikon GMBH. This cell line was used to test compound inhibition using luciferase enzyme activity readout as a measurement of compound inhibition of replicon levels.
On Day 1 (the day after plating cells), each compound is added in triplicate to the cells. Plates are incubated for 72 h prior to determining luciferase levels. Enzyme activity was measured using a Bright-Glo Kit (cat. number E2620) manufactured by Promega Corporation. The following equation was used to generate a percent control value for each compound. % Control=(Compound Luciferase Level/Control Luciferase Level)*100
The EC50 value was determined using GraphPad Prism and the following equation: Y=Bottom asymptote+(Top asymptote-Bottom asymptote)/(1+10^((Log EC50−X)*HillSlope))
EC50 values of compounds are determined several times in the replicon assay to generate average EC50 values. […]

SMILES | EC50 [nM]
COC(=O)N[C@H](C(=O)N1CCC[C@H]1c1ncc(-c2ccc3c(c2)Cc2ccc(-c4cnc([C@@H]5CCCN5C(=O)[C@@H](NC(=O)OC)[C@@H](C)OC)[nH]4)cc2O3)[nH]1)[C@@H](C)OC [Compound 30] | < 1
CC[C@H](C)[C@H](NC(=O)OC)C(=O)N1CCC[C@H]1c1ncc(-c2ccc3c(c2)Cc2ccc(-c4cnc([C@@H]5CCCN5C(=O)[C@@H](NC(=O)OC)[C@@H](C)CC)[nH]4)cc2O3)[nH]1 [Compound 31] | < 1
COC(=O)N[C@H](C(=O)N1CCC[C@H]1c1ncc(-c2ccc3c(c2)Cc2ccc(-c4cnc([C@@H]5CCCN5C(=O)[C@@H](NC(=O)OC)C5CCCC5)[nH]4)cc2O3)[nH]1)C1CCCC1 [Compound 32] | < 1
COC(=O)N[C@H](C(=O)N1CCC[C@H]1c1ncc(-c2ccc3c(c2)Oc2ccc(-c4cnc([C@@H]5CCCN5C(=O)[C@@H](NC(=O)OC)C5CCCC5)[nH]4)cc2O3)[nH]1)C1CCCC1 [Compound 33] | < 1
COC(=O)N[C@H](C(=O)N1CCC[C@H]1c1ncc(-c2ccc3c(c2)Oc2ccc(-c4cnc([C@@H]5CCCN5C(=O)[C@@H](NC(=O)OC)[C@@H](C)OC)[nH]4)cc2O3)[nH]1)[C@@H](C)OC [Compound 34] | < 1
COC(=O)N[C@H](C(=O)N1CCC[C@H]1c1ncc(-c2ccc3c(c2)Oc2ccc(-c4cnc([C@@H]5CCCN5C(=O)[C@@H](NC(=O)OC)C5CCOCC5)[nH]4)cc2O3)[nH]1)C1CCOCC1 [Compound 35] | < 1
COC(=O)N[C@H](C(=O)N1CSC[C@H]1c1ncc(-c2ccc3c(c2)Oc2ccc(-c4cnc([C@@H]5CSCN5C(=O)[C@@H](NC(=O)OC)C(C)C)[nH]4)cc2O3)[nH]1)C(C)C [Compound 36] | < 1
COC(=O)N[C@@H](C(=O)N1CSC[C@H]1c1ncc(-c2ccc3c(c2)Oc2ccc(-c4cnc([C@@H]5CSCN5C(=O)[C@H](NC(=O)OC)c5ccccc5)[nH]4)cc2O3)[nH]1)c1ccccc1 [Compound 37] | < 1
COC(=O)N[C@@H](C(=O)N[C@@H](C)c1ncc(-c2ccc3c(c2)Oc2ccc(-c4cnc([C@H](C)NC(=O)[C@H](NC(=O)OC)c5ccccc5)[nH]4)cc2O3)[nH]1)c1ccccc1 [Compound 38] | < 1
COC(=O)N[C@H](C(=O)N[C@@H](C)c1ncc(-c2ccc3c(c2)Oc2ccc(-c4cnc([C@H](C)NC(=O)[C@@H](NC(=O)OC)C(C)C)[nH]4)cc2O3)[nH]1)C(C)C [Compound 39] | < 1
COC(=O)N[C@H](C(=O)N1CCC[C@H]1c1ncc(-c2ccc3c(c2)Cc2cc(F)c(-c4cnc([C@@H]5CCCN5C(=O)[C@@H](NC(=O)OC)[C@@H](C)OC)[nH]4)cc2O3)[nH]1)[C@@H](C)OC [Compound 40] | < 1
CC[C@H](C)[C@H](NC(=O)OC)C(=O)N1CCC[C@H]1c1ncc(-c2ccc3c(c2)Cc2cc(F)c(-c4cnc([C@@H]5CCCN5C(=O)[C@@H](NC(=O)OC)[C@@H](C)OC)[nH]4)cc2O3)[nH]1 [Compound 41] | < 1
COC(=O)N[C@H](C(=O)N1CCC[C@H]1c1ncc(-c2ccc3c(c2)Cc2cc(F)c(-c4cnc([C@@H]5CCCN5C(=O)[C@@H](NC(=O)OC)[C@@H](C)OC)[nH]4)cc2O3)[nH]1)C1CCOCC1 [Compound 42] | < 1
COC[C@H](NC(=O)OC)C(=O)N1CCC[C@H]1c1ncc(-c2ccc3c(c2)Cc2cc(F)c(-c4cnc([C@@H]5CCCN5C(=O)[C@@H](NC(=O)OC)[C@@H](C)OC)[nH]4)cc2O3)[nH]1 [Compound 43] | < 1
COC(=O)N[C@H](C(=O)N1CCC[C@H]1c1ncc(-c2cc3c(cc2F)Cc2cc(-c4cnc([C@@H]5CCCN5C(=O)[C@@H](NC(=O)OC)C5CCOCC5)[nH]4)ccc2O3)[nH]1)C(C)C [Compound 44] | < 1
COC[C@H](NC(=O)OC)C(=O)N1CCC[C@H]1c1ncc(-c2ccc3c(c2)Cc2cc(F)c(-c4cnc([C@@H]5CCCN5C(=O)[C@@H](NC(=O)OC)C(C)C)[nH]4)cc2O3)[nH]1 [Compound 45] | < 1
CC[C@H](C)[C@H](NC(=O)OC)C(=O)N1CCC[C@H]1c1ncc(-c2ccc3c(c2)Oc2ccc(-c4cnc([C@@H]5CCCN5C(=O)[C@@H](NC(=O)OC)[C@@H](C)CC)[nH]4)cc2O3)[nH]1 [Compound 46] | < 1
COC(=O)N[C@H](C(=O)N1CCCC[C@H]1c1ncc(-c2ccc3c(c2)Oc2ccc(-c4cnc([C@@H]5CCCCN5C(=O)[C@@H](NC(=O)OC)C(C)C)[nH]4)cc2O3)[nH]1)C(C)C [Compound 47] | < 1
COC(=O)N[C@@H](C(=O)N1CCCC[C@H]1c1ncc(-c2ccc3c(c2)Oc2ccc(-c4cnc([C@@H]5CCCCN5C(=O)[C@H](NC(=O)OC)c5ccccc5)[nH]4)cc2O3)[nH]1)c1ccccc1 [Compound 48] | < 1
COC(=O)N[C@H](C(=O)N1CCC[C@H]1c1ncc(-c2ccc3oc4cc(-c5cnc([C@@H]6CCCN6C(=O)[C@@H](NC(=O)OC)C(C)C)[nH]5)c(Cl)cc4c(=O)c3c2)[nH]1)C(C)C [Compound 49] | < 1
COC(=O)N[C@H](C(=O)N1CCC[C@H]1c1ncc(-c2ccc3oc4cc(-c5cnc([C@@H]6CCCN6C(=O)[C@@H](NC(=O)OC)[C@@H](C)OC)[nH]5)c(Cl)cc4c(=O)c3c2)[nH]1)[C@@H](C)OC [Compound 50] | < 1
CC[C@H](C)[C@H](NC(=O)OC)C(=O)N1CCC[C@H]1c1ncc(-c2ccc3oc4cc(-c5cnc([C@@H]6CCCN6C(=O)[C@@H](NC(=O)OC)[C@@H](C)CC)[nH]5)c(Cl)cc4c(=O)c3c2)[nH]1 [Compound 51] | < 1
COC(=O)N[C@H](C(=O)N1CCC[C@H]1c1ncc(-c2ccc3oc4cc(-c5cnc([C@@H]6CCCN6C(=O)[C@@H](NC(=O)OC)C6CCOCC6)[nH]5)c(Cl)cc4c(=O)c3c2)[nH]1)C1CCOCC1 [Compound 52] | < 1
CC[C@H](C)[C@H](NC(=O)OC)C(=O)N1CCC[C@H]1c1ncc(-c2ccc3c(c2)Cc2cc(F)c(-c4cnc([C@@H]5CCCN5C(=O)[C@@H](NC(=O)OC)[C@@H](C)CC)[nH]4)cc2O3)[nH]1 [Compound 53] | < 1
C=CC[C@H](NC(=O)OC)C(=O)N1CCC[C@H]1c1ncc(-c2ccc3c(c2)Oc2ccc(-c4cnc([C@@H]5CCCN5C(=O)[C@H](CC=C)NC(=O)OC)[nH]4)cc2O3)[nH]1 [Compound 55] | < 1
C#CC[C@H](NC(=O)OC)C(=O)N1CCC[C@H]1c1ncc(-c2ccc3c(c2)Oc2ccc(-c4cnc([C@@H]5CCCN5C(=O)[C@H](CC#C)NC(=O)OC)[nH]4)cc2O3)[nH]1 [Compound 56] | < 1
[2H]C([2H])([2H])C([2H])(C([2H])([2H])[2H])[C@]([2H])(NC(=O)OC)C(=O)N1CCC[C@H]1c1ncc(-c2ccc3c(c2)Oc2ccc(-c4cnc([C@@H]5CCCN5C(=O)[C@@]([2H])(NC(=O)OC)C([2H])(C([2H])([2H])[2H])C([2H])([2H])[2H])[nH]4)cc2O3)[nH]1 [Compound 57] | < 1
COC(=O)N[C@@H](C(=O)N1CCC[C@H]1c1ncc(-c2ccc3oc4cc(-c5cnc([C@@H]6CCCN6C(=O)[C@H](NC(=O)OC)c6ccccc6)[nH]5)c(Cl)cc4c(=O)c3c2)[nH]1)c1ccccc1 [Compound 58] | < 1
CC[C@H](C)[C@H](NC(=O)OC)C(=O)N1CCC[C@H]1c1ncc(-c2cc3c(cc2F)Cc2cc(-c4cnc([C@@H]5CCCN5C(=O)[C@@H](NC(=O)OC)C5CCOCC5)[nH]4)ccc2O3)[nH]1 [Compound 59] | < 1
CC[C@H](C)[C@H](NC(=O)OC)C(=O)N1CCC[C@H]1c1ncc(-c2cc3c(cc2F)Cc2cc(-c4cnc([C@@H]5CCCN5C(=O)[C@H](COC)NC(=O)OC)[nH]4)ccc2O3)[nH]1 [Compound 60] | < 1
